What was measured:
[1] = Serum stability of the 52Mn radiocomplexes, human serum; assay type: in vitro ADME; conditions: for intact complex / % activity of pellet / % activity of supernatant: 37 °C; for intact complex: 5 days
Experimental: (§1) The ^52Mn radiocomplexes were incubated with human or mouse serum at 37 °C. 50 μL of the radiocomplexes in PBS was combined with 500 μL of serum in triplicate and incubated at 37 °C for over 5 days. At indicated time points, 50 μL of the reaction mixture was removed and proteins were precipitated by addition of 50 μL of methanol. The precipitated proteins were centrifuged before iTLC measurements were performed over a period of 5 days on the supernatant. All the radio-TLC chromatograms for evaluation of stabilities are available in the Supporting Information section as Figures S9–S12.

[2] = Ex vivo biodistribution after PET/CT; assay type: in vivo, mice
Experimental: (§2) [^52Mn]Mn-CHXPYAN and [^52Mn]Mn-PYAN radiocomplexes were evaluated in vivo through 90 min dynamic PET/CT imaging of heathy mice followed by an ex vivo biodistribution analysis. Similarly, [^52Mn]MnCl2 was also studied as a control.
(§3) [^52Mn]Mn-CHXPYAN and [^52Mn]Mn-PYAN were synthesized with molar specific activities of 80 and 60 MBq/μmol, respectively. 1.04 ± 0.07 MBq (28 ± 2 μCi) of the radiocomplexes in 100 μL injection doses was prepared. The mice (n = 4 per group) were anesthetized with 2.5% isoflurane in oxygen and were injected via the retroorbital sinus. For comparison purposes, 1.04 ± 0.07 MBq (28 ± 2 μCi) of [^52Mn]MnCl2, pH 7 was also injected. After injection, mice were imaged on a Sofie GNEXT PET/CT scanner for a 90 min dynamic scan (9 frames of 10 min each) followed by a 3 min CT at 80 kVp for anatomical reference. PET images were reconstructed via 3D-OSEM (Ordered Subset Expectation Maximization) algorithm (24 subsets and 3 iterations), with random, attenuation, and decay correction, and CT was reconstructed with the modified Feldkamp algorithm and analyzed using VivoQuant 4.0 (Invicro Imaging Service and Software, Boston MA) software. After imaging, mice were euthanized, and organs were collected, weighed, and counted for associated radioactivity on an automated gamma counter. Radioactivity uptake was calculated as the percent injected dose per gram of tissue (% ID/g). Following the reconstruction of the images, ROIs (heart, liver, kidneys, muscle, and bone) were hand-drawn to determine the SUVs using the VivoQuant imaging software.

[3] = Dynamic PET/CT imaging, SUVmean analysis; assay type: in vivo; conditions: healthy mice, 1.5 h postinjection
Experimental: as §2
Regions of interest (ROIs) were manually drawn using CT images to determine the standard uptake value (SUVmean) using VivoQuant imaging software.
as §3

[4] = Serum stability of the 52Mn radiocomplexes, mouse serum; assay type: in vitro ADME; conditions: for intact complex / % activity of pellet / % activity of supernatant: 37 °C; for intact complex: 5 days
Experimental: as §1

[5] = DTPA challenge of the radiocomplexes; assay type: physicochemical; conditions: DTPA (5 equiv), 37 °C
Experimental: (§4) Assessment of the stability and kinetic inertness of the radiocomplexes before in vivo evaluation was conducted to assess the possibilities of transchelation. In vitro stability assays including incubating the radiocomplexes with an excess (100 μM) of biologically relevant metal ions (Mg^2+, Zn^2+, Fe^2+, and Cu^2+), DTPA, and mouse and human serum were conducted.
(§5) For metal challenge studies, a 10 molar excess of 100 μM of metal ions in chloride solutions including CuCl2, ZnCl2, FeCl2, and MgCl2 relative to ligand concentration was incubated with the radiocomplexes at 37 °C. A 5 molar excess of DTPA was also added to compete with ^52Mn in the radiocomplexes. Decomplexation was monitored by radio-iTLC over a period of 5 days.

[6] = Metal challenge of the radiocomplexes; assay type: physicochemical
Experimental: as §4, §5

[7] = healthy mice, 1.5 h postinjection, mean ± SD, n = 4

## [52Mn+2].c1cc2nc(c1)CNCCNCc1cccc(n1)CNCCNC2 [[^52Mn]Mn-PYAN]
[1]
  intact complex: 92.78 ± 1.22%
[2]; [7]
  Biodistribution, Blood: 0.70 ± 0.20 % ID/g
  Biodistribution, Brain: 0.45 ± 0.09 % ID/g
  Biodistribution, Fat: 1.03 ± 0.50 % ID/g
  Biodistribution, Femur: 0.80 ± 0.30 % ID/g
  Biodistribution, Heart: 1.85 ± 0.71 % ID/g
  Biodistribution, Kidney: 63.34 % ID/g
  Biodistribution, Liver: 30.39 ± 11.46 % ID/g
  Biodistribution, Lungs: 1.28 ± 0.51 % ID/g
  Biodistribution, Muscle: 0.18 ± 0.05 % ID/g
  Biodistribution, Pancreas: 2.41 ± 1.60 % ID/g
  Biodistribution, Skin: 0.32 ± 0.18 % ID/g
  Biodistribution, Spleen: 1.33 ± 0.93 % ID/g
  Biodistribution, Stomach: 1.29 ± 0.53 % ID/g
[2]; mouse, in vivo, 1.5 h
  Biodistribution, L. Intestine: 2.69 ± 0.82 % ID/g
  Biodistribution, S. Intestine: 13.00 ± 2.35 % ID/g
[3]
  SUVmean, kidneys: 1.70 ± 0.26
  SUVmean, liver: 0.77 ± 0.14
[4]
  intact complex: 90.67 ± 1.12%
[5]; day 1
  intact complex: 2.32 ± 0.66%
[6]; 10 molar excess of Cu^2+, day 1
  intact complex: < 4%
[6]; 10 molar excess of Zn^2+, day 1
  intact complex: < 4%

## [52Mn+2].c1cc2nc(c1)CN[C@@H]1CCCC[C@H]1NCc1cccc(n1)CN[C@@H]1CCCC[C@H]1NC2 [[^52Mn]Mn-CHXPYAN]
[1]
  intact complex: 98.04 ± 0.18%
[1]; day 1, average
  % activity of pellet: 13.09%
  % activity of supernatant: 86.91%
[1]; day 2, average
  % activity of pellet: 12.54%
  % activity of supernatant: 87.45%
[1]; day 3, average
  % activity of pellet: 14.46%
  % activity of supernatant: 85.54%
[1]; day 4, average
  % activity of pellet: 10.33%
  % activity of supernatant: 89.66%
[1]; day 5, average
  % activity of pellet: 9.31%
  % activity of supernatant: 90.7%
[1]; all time points
  radioactivity associated with the protein pellet: < 15%
[2]; [7]
  Biodistribution, Blood: 0.14 ± 0.01 % ID/g
  Biodistribution, Brain: 0.03 ± 0.01 % ID/g
  Biodistribution, Fat: 0.11 ± 0.13 % ID/g
  Biodistribution, Femur: 0.09 ± 0.04 % ID/g
  Biodistribution, Heart: 0.21 ± 0.01 % ID/g
  Biodistribution, Kidney: 11.27 ± 1.11 % ID/g
  Biodistribution, L. Intestine: 3.45 ± 1.44 % ID/g
  Biodistribution, Liver: 1.72 ± 0.93 % ID/g
  Biodistribution, Lungs: 0.26 ± 0.12 % ID/g
  Biodistribution, Muscle: 0.02 ± 0.01 % ID/g
  Biodistribution, Pancreas: 0.20 ± 0.09 % ID/g
  Biodistribution, S. Intestine: 2.32 ± 0.83 % ID/g
  Biodistribution, Skin: 0.08 ± 0.04 % ID/g
  Biodistribution, Spleen: 0.22 ± 0.18 % ID/g
  Biodistribution, Stomach: 0.08 ± 0.04 % ID/g
[3]
  SUVmean, kidneys: 0.20 ± 0.03
  SUVmean, liver: 0.10 ± 0.02
[4]
  intact complex: 96.31 ± 1.34%
[4]; day 1, average
  % activity of pellet: 10.33%
  % activity of supernatant: 89.66%
[4]; day 2, average
  % activity of pellet: 10.82%
  % activity of supernatant: 89.18%
[4]; day 3, average
  % activity of pellet: 12.07%
  % activity of supernatant: 87.93%
[4]; day 4, average
  % activity of pellet: 14.33%
  % activity of supernatant: 85.66%
[4]; day 5, average
  % activity of pellet: 12.14%
  % activity of supernatant: 87.67%
[4]; all time points
  radioactivity associated with the protein pellet: < 15%
[5]; day 5
  intact complex: 5.73 ± 0.25%
[6]; 10 molar excess of Cu^2+, day 5
  intact complex: 14.56 ± 1.09%
[6]; 10 molar excess of Zn^2+, day 5
  intact complex: 8.14 ± 1.76%
